According to patent US10610539B2, “Cardiac glycoside analogs and their use in methods for inhibition of viral infection” (priority 2013, dated 2020):

Legend:
[1] = tested on: Human Foreskin Fibroblasts (HFFs); type: cell-based; settings: for cell cycle progression after mimosine arrest: HFFs treated with mimosine 48 hours, washed, treated one day
Experimental: Flow Cytometry: 1×10^5 HFFs from infected-treated or untreated conditions were washed with cold PBS. Cells were suspended in 70% pre-cooled alcohol. Cells were permeabilized in −20° C. for at least 2 hours followed by centrifugation at 5000 rpm for 5 minutes. The supernatants were discarded and cells were washed with cold PBS three times. Cells were re-suspended in 500 ul PBS, propidium iodide was added to a final concentration of 20-50 μg/ml and cells were incubated at room temperature for at least 10 minutes before applying them on flow machine.
The differences between the MTT and trypan blue assay complicated the calculation of antiviral selectivity. […] After 3 day serum starvation cells were released from serum starvation, infected with Towne HCMV and treated with digitoxin or the cardiac glycoside ouabain for 24 hours. HFFs were stained with propidium iodide and subjected to cell cycle analysis by flow cytometry.

[2] = tested on: Herpes Simplex Virus 1 (HSV1); settings: reported; cited from earlier work
Towne HCMV = settings: previously reported by the inventors; cited from earlier work
breast cancer patients = settings: women with breast cancer taking digoxin vs. 34% not taking digitalis; cited from earlier work

SMILES | cell cycle progression after mimosine arrest [1] | inhibition of Herpes Simplex Virus 1 (HSV1) [2] | inhibition of Towne HCMV replication (Towne HCMV) | death rate (breast cancer patients) [%] | cell cycle progression ([1]; HFFs released from 3 day serum starvation, infected with Towne HCMV, treated 24 hours)
Nc1nc(O)c2ncn(COC(CO)CO)c2n1 [GCV, ganciclovir] | allowed the cells to normally progress in the cell cycle |  |  |  | 
C[C@H]1O[C@@H](O[C@H]2[C@@H](O)C[C@H](O[C@H]3[C@@H](O)C[C@H](O[C@H]4CC[C@@]5(C)[C@H](CC[C@@H]6[C@@H]5C[C@@H](O)[C@]5(C)[C@@H](C7=CC(=O)OC7)CC[C@]65O)C4)O[C@@H]3C)O[C@@H]2C)C[C@H](O)[C@@H]1O [digoxin] |  | inhibit Herpes Simplex Virus 1 (HSV1) in nanomolar concentrations | potent inhibitors of Towne HCMV replication | 6 | 
C[C@@H]1O[C@@H](O[C@H]2C[C@@H](O)[C@]3(CO)[C@H]4[C@H](O)C[C@]5(C)[C@@H](C6=CC(=O)OC6)CC[C@]5(O)[C@@H]4CC[C@]3(O)C2)[C@H](O)[C@H](O)[C@H]1O [ouabain] | could not relieve HFFs from cell cycle arrest induced by mimosine | inhibit Herpes Simplex Virus 1 (HSV1) in nanomolar concentrations | potent inhibitors of Towne HCMV replication |  | arrested HFFs in G1
